Measured values: patent US10871487B2, “FRET-based glucose-detection molecules” (priority 2016, dated 2020)

Tests used:
[1] = molecular target: T1, FRET-based glucose-detection molecule D278, SEQ ID No. 3, glucose-binding region derived from E. coli mg1B (galactose binding protein), residue 16 = Q (Escherichia coli, UniProt P0AEE5, DELINS298-299[…]/F39Q); assay: FRET:F ratio at different glucose concentrations, Kd extracted from curve (D278); conditions: FIG. 5B
T1 construct: red acceptor fluorophore at N-terminus with linker; FRET sensor D278; made in E. coli, purified
Text: (§1) Reference is also made to FIG. 2, which is a graph that illustrates, in a generalized manner, FRET behavior of molecule 20 (and of the molecules that it represents), in accordance with some applications of the invention. Three important features of molecules suitable for FRET-based glucose detection are: • (1) High contrast. That is, a large difference between the FRET:F ratio in the disassociated state and the FRET:F ratio in the associated state (referred to herein as “delta ratio” (“dR”)). […]
(§2) Reference is now made to FIG. 4, which is a set of graphs which show, for some of the molecules described hereinabove, the FRET:F ratio (y axis) at different glucose concentrations, measured at 35 degrees C.
(§3) The measurements were performed on proteins that were extracted from E. coli (in which they were produced) and purified in 50 mM Tris (pH 7.6, 1 mM CaCl_2, 100 mM NaCl_2). Measurements were performed using an Infinite (R) 200 plate reader or on a fluoroscopic microscope. FRET-based emission was measured by applying excitation at 475 nm and detecting emission at 640-800 nm. Direct fluorescence of the acceptor fluorophore was measured by applying excitation at 575 nm and detecting emission at 640-800 nm. Curves were generated from the measured points (typically 10) by a non-linear interpolation, and Kd and dR were extracted. […]

[2] = molecular target: T2, FRET-based glucose-detection molecule D198, glucose-binding region derived from E. coli mg1B (galactose binding protein), 16 = A (Escherichia coli, UniProt P0AEE5, F39A); assay: Kd of residue 16 variant at room temperature (D198)
T2 construct: made in E. coli, purified
Text: (§4) Reference is also made to FIG. 2, which is a graph that illustrates, in a generalized manner, FRET behavior of molecule 20 (and of the molecules that it represents), in accordance with some applications of the invention. Three important features of molecules suitable for FRET-based glucose detection are: • (1) High contrast. That is, a large difference between the FRET:F ratio in the disassociated state and the FRET:F ratio in the associated state (referred to herein as “delta ratio” (“dR”)). In FIG. 2, this is represented as the difference between the highest FRET:F ratio and the lowest FRET:F ratio on the curve. • (2) High sensitivity at physiologically-relevant glucose concentrations when at physiologically-relevant temperatures. […]
as §3

[3] = molecular target: T3, FRET-based glucose-detection molecule D263, glucose-binding region derived from E. coli mg1B (galactose binding protein), 16 = V (Escherichia coli, UniProt P0AEE5, F39V); assay: Kd of residue 16 variant at room temperature (D263)
T3 construct: made in E. coli, purified
Text: as §4, §3

[4] = molecular target: T4, FRET-based glucose-detection molecule D277, SEQ ID No. 2, glucose-binding region derived from E. coli mg1B (galactose binding protein), residue 16 = Q (Escherichia coli, UniProt P0AEE5, DELINS298-299[…]/F39Q); assay: FRET:F ratio at different glucose concentrations, Kd extracted from curve (D277); conditions: FIG. 5B
T4 construct: red acceptor fluorophore at N-terminus with linker; FRET sensor D277; made in E. coli, purified
Text: as §1, §2, §3

[5] = molecular target: T5, FRET-based glucose-detection molecule D279, SEQ ID No. 4, glucose-binding region derived from E. coli mg1B (galactose binding protein), residue 16 = Q (Escherichia coli, UniProt P0AEE5, DELINS299-299[…]/F39Q); assay: FRET:F ratio at different glucose concentrations, Kd extracted from curve (D279); conditions: FIG. 5B
T5 construct: red acceptor fluorophore at N-terminus; FRET sensor D279; made in E. coli, purified
Text: as §1, §2, §3

[6] = molecular target: T6, FRET-based glucose-detection molecule D267, glucose-binding region derived from E. coli mg1B (galactose binding protein), 16 = N (Escherichia coli, UniProt P0AEE5, F39N); assay: Kd of residue 16 variant at room temperature (D267)
T6 construct: made in E. coli, purified
Text: as §4, §3

[7] = molecular target: T7, FRET-based glucose-detection molecule D274, SEQ ID No. 1, glucose-binding region derived from E. coli mg1B (galactose binding protein), residue 16 = Q (Escherichia coli, UniProt P0AEE5, DELINS298-299[…]/F39Q); assay: FRET:F ratio at different glucose concentrations, Kd extracted from curve (D274); conditions: FIG. 5B
T7 construct: red acceptor fluorophore at N-terminus; FRET sensor D274; made in E. coli, purified
Text: as §1, §2, §3

[8] = molecular target: T8, FRET-based glucose-detection molecule D241, glucose-binding region derived from E. coli mg1B (galactose binding protein), 16 = Q (Escherichia coli, UniProt P0AEE5, F39Q); assay: Kd of residue 16 variant at room temperature (D241)
T8 construct: made in E. coli, purified
Text: as §4, §3

T2 sequence (P0AEE5 24-332 F39A limits assumed): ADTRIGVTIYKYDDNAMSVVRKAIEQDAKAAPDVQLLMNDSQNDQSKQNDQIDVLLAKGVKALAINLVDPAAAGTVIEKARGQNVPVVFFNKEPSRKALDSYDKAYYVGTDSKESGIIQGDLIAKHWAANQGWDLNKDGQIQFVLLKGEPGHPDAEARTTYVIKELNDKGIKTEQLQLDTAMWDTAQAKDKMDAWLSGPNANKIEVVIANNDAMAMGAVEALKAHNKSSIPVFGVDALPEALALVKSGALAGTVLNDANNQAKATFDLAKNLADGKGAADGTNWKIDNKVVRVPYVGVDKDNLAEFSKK
T6 sequence (P0AEE5 24-332 F39N limits assumed): as the sequence (P0AEE5 24-332 F39A limits assumed) above, with A16N counted along it
T4 sequence (P0AEE5 other isoform, or with tags, fused parts or gaps with the stated changes): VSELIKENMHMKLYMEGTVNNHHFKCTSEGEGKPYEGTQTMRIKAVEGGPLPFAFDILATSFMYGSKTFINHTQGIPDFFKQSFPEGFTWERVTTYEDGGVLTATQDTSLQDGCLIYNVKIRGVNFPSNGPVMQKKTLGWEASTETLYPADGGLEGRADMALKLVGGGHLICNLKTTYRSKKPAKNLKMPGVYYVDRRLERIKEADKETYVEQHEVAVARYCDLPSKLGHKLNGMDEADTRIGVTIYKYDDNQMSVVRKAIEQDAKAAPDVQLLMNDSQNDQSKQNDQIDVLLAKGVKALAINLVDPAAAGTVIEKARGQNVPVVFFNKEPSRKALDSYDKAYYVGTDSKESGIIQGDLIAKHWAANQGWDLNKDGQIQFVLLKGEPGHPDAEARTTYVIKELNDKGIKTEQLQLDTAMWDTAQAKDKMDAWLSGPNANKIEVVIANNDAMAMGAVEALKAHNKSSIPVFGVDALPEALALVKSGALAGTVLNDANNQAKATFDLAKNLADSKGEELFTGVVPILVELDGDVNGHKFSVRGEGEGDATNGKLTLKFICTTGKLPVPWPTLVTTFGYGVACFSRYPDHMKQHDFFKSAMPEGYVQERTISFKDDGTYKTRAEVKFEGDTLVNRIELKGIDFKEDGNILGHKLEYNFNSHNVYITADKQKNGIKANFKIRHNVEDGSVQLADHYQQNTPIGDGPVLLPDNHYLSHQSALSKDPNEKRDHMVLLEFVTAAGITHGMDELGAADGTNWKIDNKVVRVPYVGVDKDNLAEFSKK
T3 sequence (P0AEE5 24-332 F39V limits assumed): as the sequence (P0AEE5 24-332 F39A limits assumed) above, with A16V counted along it
T5 sequence (P0AEE5 other isoform, or with tags, fused parts or gaps with the stated changes): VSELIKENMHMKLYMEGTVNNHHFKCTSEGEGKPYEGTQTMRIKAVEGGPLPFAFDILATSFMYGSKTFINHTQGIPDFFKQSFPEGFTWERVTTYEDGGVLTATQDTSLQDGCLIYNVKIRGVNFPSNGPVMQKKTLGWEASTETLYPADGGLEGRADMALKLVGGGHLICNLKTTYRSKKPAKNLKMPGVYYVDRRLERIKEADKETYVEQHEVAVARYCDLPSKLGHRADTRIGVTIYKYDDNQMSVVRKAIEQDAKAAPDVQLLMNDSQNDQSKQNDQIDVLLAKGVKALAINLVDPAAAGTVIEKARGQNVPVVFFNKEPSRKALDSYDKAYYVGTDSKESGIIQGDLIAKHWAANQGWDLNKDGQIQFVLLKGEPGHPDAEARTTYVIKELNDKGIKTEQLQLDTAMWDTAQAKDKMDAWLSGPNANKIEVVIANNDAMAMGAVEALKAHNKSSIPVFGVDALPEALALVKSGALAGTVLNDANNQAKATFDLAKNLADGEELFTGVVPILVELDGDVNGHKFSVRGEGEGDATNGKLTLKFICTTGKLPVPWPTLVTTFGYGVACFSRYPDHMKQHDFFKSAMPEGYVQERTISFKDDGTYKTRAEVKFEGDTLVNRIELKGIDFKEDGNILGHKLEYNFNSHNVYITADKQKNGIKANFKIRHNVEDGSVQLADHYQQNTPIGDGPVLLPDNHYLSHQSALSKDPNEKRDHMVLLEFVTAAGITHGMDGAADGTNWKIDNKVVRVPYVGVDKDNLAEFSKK
T1 sequence (P0AEE5 other isoform, or with tags, fused parts or gaps with the stated changes): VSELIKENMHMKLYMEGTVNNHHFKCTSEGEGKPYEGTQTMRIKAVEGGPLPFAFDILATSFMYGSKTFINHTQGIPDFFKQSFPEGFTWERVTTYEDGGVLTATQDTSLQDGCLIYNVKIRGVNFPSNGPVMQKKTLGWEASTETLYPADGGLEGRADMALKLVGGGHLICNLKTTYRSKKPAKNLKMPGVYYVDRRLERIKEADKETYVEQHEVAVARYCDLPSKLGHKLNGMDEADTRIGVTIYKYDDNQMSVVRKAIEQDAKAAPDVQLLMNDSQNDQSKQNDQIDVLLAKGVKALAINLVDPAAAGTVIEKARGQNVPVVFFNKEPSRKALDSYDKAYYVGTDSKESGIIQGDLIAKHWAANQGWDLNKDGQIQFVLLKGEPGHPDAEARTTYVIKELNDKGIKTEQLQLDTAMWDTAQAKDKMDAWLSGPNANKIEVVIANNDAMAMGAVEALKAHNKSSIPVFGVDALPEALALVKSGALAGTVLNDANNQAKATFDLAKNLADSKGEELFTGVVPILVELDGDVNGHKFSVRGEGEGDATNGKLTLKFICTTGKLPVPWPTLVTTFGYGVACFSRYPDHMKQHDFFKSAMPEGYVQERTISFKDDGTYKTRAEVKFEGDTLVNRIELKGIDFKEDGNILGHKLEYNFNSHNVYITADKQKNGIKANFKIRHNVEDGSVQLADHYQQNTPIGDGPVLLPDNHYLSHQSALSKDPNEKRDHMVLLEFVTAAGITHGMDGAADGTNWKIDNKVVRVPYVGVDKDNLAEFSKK
T8 sequence (P0AEE5 24-332 F39Q limits assumed): as the sequence (P0AEE5 24-332 F39A limits assumed) above, with A16Q counted along it
T7 sequence (P0AEE5 other isoform, or with tags, fused parts or gaps with the stated changes): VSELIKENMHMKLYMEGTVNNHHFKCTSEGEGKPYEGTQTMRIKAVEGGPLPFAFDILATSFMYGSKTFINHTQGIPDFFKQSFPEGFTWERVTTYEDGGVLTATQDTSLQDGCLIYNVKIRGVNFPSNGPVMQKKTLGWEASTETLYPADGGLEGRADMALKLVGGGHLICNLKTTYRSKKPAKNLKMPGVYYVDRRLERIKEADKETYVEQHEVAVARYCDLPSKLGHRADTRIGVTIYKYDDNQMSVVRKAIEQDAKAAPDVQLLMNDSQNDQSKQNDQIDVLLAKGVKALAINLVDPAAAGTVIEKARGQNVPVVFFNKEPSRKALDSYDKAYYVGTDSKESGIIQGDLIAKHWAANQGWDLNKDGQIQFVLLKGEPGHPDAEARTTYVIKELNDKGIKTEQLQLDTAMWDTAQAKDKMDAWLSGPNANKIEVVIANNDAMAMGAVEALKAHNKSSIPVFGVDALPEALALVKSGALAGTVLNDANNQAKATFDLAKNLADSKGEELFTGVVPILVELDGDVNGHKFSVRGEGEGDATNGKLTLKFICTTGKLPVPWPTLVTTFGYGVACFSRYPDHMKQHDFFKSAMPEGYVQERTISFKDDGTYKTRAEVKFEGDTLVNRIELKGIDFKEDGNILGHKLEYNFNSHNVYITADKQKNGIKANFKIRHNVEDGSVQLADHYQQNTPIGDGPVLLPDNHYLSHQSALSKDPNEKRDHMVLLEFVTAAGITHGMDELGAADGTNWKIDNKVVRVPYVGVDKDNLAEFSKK

OC[C@H]1OC(O)[C@H](O)[C@@H](O)[C@@H]1O (some centres unmarked) [glucose]
Kd at different temperatures [1]: Kd increased with temperature for all four molecules
Kd [2]: 3.2 mM
Kd [3]: 7.9 mM
Kd at different temperatures [4]: Kd increased with temperature for all four molecules
Kd at different temperatures [5]: Kd increased with temperature for all four molecules; the change was greatest for D279
Kd [6]: 9.4 mM
Kd at different temperatures [7]: Kd increased with temperature for all four molecules; the change was greatest for D279, and smallest for D274
Kd [8]: 0.3 mM
